Test results from US20250302832A1, “PYRAZINE DERIVATIVES AND USES THEREOF” (FOGHORN THERAPEUTICS INC., priority 2022, published 2025).

Columns and labels:
HiBit-BRM fusion protein = molecular target: T1, HiBit-BRM fusion protein (Homo sapiens, UniProt P51531); assay: HiBiT-BRM cell-based degradation assay (Nano-Glo HiBiT lytic detection, 24 h); details: HeLa cell line expressing HiBiT-BRM; for DC50: read-out: BRM HiBit Degradation IC50
T1 construct: expressed in transfected cells
Procedure, shortened: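 Stable HeLa HiBiT-BRM cells treated 24 h with compounds (10-point 3-fold dilutions, 30 μM final top dose, duplicate). HiBiT levels read by Nano-Glo lytic luminescence; % degradation normalised to DMSO (high control) and 2 μM reference BRM/BRG1 degrader (low control).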

[1] = molecular target: T2, HiBit-BRG1 fusion protein (Homo sapiens, UniProt P51532); assay: HiBiT-BRG1 cell-based degradation assay (Nano-Glo HiBiT lytic detection, 24 h); details: HeLa cell line expressing HiBit-BRG1 and LgBit; for Dmax: read-out: BRG1 HiBit Degradation Maximum (%); for DC50: read-out: BRMG1 HiBit Degradation IC50
T2 construct: expressed in transfected cells
T2 sequence (P51532 whole entry, the tested form may be a part): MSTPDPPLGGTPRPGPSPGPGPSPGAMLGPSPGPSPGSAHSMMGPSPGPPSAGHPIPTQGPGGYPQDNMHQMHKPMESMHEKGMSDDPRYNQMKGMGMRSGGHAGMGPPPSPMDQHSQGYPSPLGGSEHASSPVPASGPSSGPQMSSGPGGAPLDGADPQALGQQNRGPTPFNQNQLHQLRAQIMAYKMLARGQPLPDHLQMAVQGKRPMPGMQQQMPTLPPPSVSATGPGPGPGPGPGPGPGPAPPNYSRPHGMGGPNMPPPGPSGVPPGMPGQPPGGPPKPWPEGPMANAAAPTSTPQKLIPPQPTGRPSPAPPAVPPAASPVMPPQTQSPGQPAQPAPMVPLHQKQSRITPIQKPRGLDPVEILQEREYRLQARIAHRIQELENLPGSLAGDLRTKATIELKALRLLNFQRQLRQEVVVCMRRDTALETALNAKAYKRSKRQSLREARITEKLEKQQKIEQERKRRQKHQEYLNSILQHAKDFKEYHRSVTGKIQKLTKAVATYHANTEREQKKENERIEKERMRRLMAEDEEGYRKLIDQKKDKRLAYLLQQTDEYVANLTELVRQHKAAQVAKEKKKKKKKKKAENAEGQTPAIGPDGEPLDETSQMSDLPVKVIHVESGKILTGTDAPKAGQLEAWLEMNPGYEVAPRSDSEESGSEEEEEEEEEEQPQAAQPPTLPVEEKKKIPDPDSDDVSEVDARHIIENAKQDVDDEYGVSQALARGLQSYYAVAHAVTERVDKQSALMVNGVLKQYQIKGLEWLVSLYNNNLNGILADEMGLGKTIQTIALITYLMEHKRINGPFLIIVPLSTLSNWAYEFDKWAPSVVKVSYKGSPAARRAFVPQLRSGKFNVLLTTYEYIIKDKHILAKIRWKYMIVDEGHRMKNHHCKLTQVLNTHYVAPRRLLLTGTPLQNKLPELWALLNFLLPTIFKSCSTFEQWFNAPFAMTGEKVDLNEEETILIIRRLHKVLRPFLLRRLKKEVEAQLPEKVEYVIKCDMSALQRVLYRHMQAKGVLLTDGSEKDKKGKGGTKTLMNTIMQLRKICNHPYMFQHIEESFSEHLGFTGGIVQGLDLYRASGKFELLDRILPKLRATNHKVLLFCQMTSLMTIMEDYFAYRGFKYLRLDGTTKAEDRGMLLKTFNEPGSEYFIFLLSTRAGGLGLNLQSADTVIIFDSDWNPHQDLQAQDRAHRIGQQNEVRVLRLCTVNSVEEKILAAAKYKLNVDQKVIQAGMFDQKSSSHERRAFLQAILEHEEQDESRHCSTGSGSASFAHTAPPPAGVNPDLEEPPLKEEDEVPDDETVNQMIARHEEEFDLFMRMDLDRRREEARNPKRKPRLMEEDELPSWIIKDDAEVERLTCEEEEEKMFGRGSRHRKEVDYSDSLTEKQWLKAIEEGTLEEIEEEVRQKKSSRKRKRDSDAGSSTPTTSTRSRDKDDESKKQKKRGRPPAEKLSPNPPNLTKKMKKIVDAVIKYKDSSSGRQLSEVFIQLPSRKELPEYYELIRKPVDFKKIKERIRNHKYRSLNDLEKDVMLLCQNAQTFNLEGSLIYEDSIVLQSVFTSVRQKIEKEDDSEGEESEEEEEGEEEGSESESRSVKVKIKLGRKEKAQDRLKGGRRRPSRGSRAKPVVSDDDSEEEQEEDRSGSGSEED
Procedure, shortened: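 HeLa cells stably expressing HiBiT-BRG1 and LgBiT, 5000 per well, compound-treated 24 h, equilibrated 15 min at room temperature, then lysed with LgBiT-containing Nano-Glo HiBiT lytic reagent and luminescence read. % degradation normalised between DMSO (high control) and 2 μM reference BRM/BRG1 degrader (low control).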

T1 sequence (P51531 whole entry, the tested form may be a part): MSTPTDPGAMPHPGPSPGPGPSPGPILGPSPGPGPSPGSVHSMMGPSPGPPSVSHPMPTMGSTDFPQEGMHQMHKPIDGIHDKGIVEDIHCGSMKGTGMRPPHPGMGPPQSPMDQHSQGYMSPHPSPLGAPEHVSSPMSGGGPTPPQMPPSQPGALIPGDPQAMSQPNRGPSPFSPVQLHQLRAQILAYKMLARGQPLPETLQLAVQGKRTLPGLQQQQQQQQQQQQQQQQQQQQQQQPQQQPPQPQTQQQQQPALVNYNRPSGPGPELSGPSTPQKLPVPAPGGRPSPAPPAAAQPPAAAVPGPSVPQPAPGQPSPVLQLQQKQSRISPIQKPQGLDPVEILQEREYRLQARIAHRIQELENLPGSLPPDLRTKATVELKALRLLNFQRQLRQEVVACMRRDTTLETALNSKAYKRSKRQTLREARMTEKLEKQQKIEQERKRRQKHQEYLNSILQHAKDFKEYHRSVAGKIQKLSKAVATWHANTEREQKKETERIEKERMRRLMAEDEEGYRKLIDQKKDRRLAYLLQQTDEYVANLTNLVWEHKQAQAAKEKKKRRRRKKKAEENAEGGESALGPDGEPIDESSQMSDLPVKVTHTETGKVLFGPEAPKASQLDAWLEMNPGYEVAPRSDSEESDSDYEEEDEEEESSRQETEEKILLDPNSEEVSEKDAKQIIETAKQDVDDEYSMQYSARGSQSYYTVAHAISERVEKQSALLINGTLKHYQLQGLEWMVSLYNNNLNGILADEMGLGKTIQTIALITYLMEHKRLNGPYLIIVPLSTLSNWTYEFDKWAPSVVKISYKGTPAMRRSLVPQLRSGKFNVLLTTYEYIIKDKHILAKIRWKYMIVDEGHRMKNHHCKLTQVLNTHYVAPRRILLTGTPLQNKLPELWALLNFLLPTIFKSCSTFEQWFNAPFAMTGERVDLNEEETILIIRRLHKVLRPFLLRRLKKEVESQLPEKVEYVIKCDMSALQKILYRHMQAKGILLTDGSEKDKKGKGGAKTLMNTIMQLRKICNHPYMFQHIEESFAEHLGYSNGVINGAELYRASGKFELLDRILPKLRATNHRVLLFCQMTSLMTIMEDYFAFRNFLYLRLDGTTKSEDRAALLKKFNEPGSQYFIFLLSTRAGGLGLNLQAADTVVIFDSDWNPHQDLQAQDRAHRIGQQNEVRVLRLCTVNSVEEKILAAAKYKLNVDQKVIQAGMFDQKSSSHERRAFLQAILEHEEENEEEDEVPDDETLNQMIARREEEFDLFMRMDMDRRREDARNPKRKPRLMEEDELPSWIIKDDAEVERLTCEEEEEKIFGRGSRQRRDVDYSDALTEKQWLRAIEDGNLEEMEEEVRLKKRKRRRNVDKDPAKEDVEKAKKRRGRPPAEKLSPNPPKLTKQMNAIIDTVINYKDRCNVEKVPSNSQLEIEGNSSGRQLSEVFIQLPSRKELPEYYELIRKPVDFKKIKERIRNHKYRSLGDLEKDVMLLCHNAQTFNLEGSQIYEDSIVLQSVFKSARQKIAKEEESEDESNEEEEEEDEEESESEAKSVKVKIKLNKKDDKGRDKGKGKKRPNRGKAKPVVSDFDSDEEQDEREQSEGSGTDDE

Compound	BRM HiBit Degradation Maximum (%) (HiBit-BRM fusion protein)	DC50 (HiBit-BRM fusion protein) [µM]	Dmax [1] [%]	DC50 [1] [µM]
Cc1ncsc1-c1ccc([C@H](C)NC(=O)[C@@H]2C[C@@H](O)CN2C(=O)[C@@H](c2cc(-c3cnc(N4CC[C@@H](c5cc6nnc(-c7ccccc7O)cc6n5C56CC(C5)C6)C4)nc3)no2)C(C)C)cc1 [Compound 94, (2S,4R)-1-((R)-2-(3-(2-((R)-3-(5-(bicyclo[1.1.1]pentan-1-yl)-3-(2-hydroxyphenyl)-5H-pyrrolo[3,2-c]pyridazin-6-yl)pyrrolidin-1-yl)pyrimidin-5-yl)isoxazol-5-yl)-3-methylbutanoyl)-4-hydroxy-N-((S)-1-(4-(4-methylthiazol-5-yl)phenyl)ethyl)pyrrolidine-2-carboxamide]	A (“A” indicates maximum degradation ≥75%)	< 0.01	< 50	
Cc1ncsc1-c1ccc([C@H](C)NC(=O)[C@@H]2C[C@@H](O)CN2C(=O)[C@@H](c2cc(-c3cnc(N4CC[C@H](c5cc6nnc(-c7ccccc7O)cc6n5C56CC(C5)C6)C4)nc3)no2)C(C)C)cc1 [Compound 95, (2S,4R)-1-((R)-2-(3-(2-((S)-3-(5-(bicyclo[1.1.1]pentan-1-yl)-3-(2-hydroxyphenyl)-5H-pyrrolo[3,2-c]pyridazin-6-yl)pyrrolidin-1-yl)pyrimidin-5-yl)isoxazol-5-yl)-3-methylbutanoyl)-4-hydroxy-N-((S)-1-(4-(4-methylthiazol-5-yl)phenyl)ethyl)pyrrolidine-2-carboxamide]	A (“A” indicates maximum degradation ≥75%)	< 0.01	> 50	> 0.01
Cc1ncsc1-c1ccc([C@H](C)NC(=O)[C@@H]2C[C@@H](O)CN2C(=O)[C@@H](c2cc(N3CCC4(CC[C@H](c5cc6nnc(-c7ccccc7O)cc6n5C5CC5)C4)CC3)no2)C(C)C)cc1 [Compound 96, (2S,4R)-1-((R)-2-(3-((S)-2-(5-cyclopropyl-3-(2-hydroxyphenyl)-5H-pyrrolo[3,2-c]pyridazin-6-yl)-8-azaspiro[4.5]decan-8-yl)isoxazol-5-yl)-3-methylbutanoyl)-4-hydroxy-N-((S)-1-(4-(4-methylthiazol-5-yl)phenyl)ethyl)pyrrolidine-2-carboxamide]	A (“A” indicates maximum degradation ≥75%)	< 0.01	> 50	> 0.01
Cc1ncsc1-c1ccc([C@H](C)NC(=O)[C@@H]2C[C@@H](O)CN2C(=O)[C@@H](c2cc(N3CCC4(CC[C@@H](c5cc6nnc(-c7ccccc7O)cc6n5C5CC5)C4)CC3)no2)C(C)C)cc1 [Compound 97, (2S,4R)-1-((R)-2-(3-((R)-2-(5-cyclopropyl-3-(2-hydroxyphenyl)-5H-pyrrolo[3,2-c]pyridazin-6-yl)-8-azaspiro[4.5]decan-8-yl)isoxazol-5-yl)-3-methylbutanoyl)-4-hydroxy-N-((S)-1-(4-(4-methylthiazol-5-yl)phenyl)ethyl)pyrrolidine-2-carboxamide]	A (“A” indicates maximum degradation ≥75%)	< 0.01	< 50	
Cc1ncsc1-c1ccc([C@H](C)NC(=O)[C@@H]2C[C@@H](O)CN2C(=O)[C@@H](c2cc(N3CCC[C@H](c4cc5nnc(-c6ccccc6O)cc5n4C4CC4)C3)no2)C(C)C)cc1 [Compound 98, (2S,4R)-1-((R)-2-(3-((S)-3-(5-cyclopropyl-3-(2-hydroxyphenyl)-5H-pyrrolo[3,2-c]pyridazin-6-yl)piperidin-1-yl)isoxazol-5-yl)-3-methylbutanoyl)-4-hydroxy-N-((S)-1-(4-(4-methylthiazol-5-yl)phenyl)ethyl)pyrrolidine-2-carboxamide]	A (“A” indicates maximum degradation ≥75%)	> 0.01	> 75	> 0.01
Cc1ncsc1-c1ccc([C@H](C)NC(=O)[C@@H]2C[C@@H](O)CN2C(=O)[C@@H](c2cc(N3CC[C@H](c4cc5nnc(-c6ccccc6O)cc5n4C4CC4)C3)no2)C(C)C)cc1 [Compound 99, (2S,4R)-1-((R)-2-(3-((S)-3-(5-cyclopropyl-3-(2-hydroxyphenyl)-5H-pyrrolo[3,2-c]pyridazin-6-yl)pyrrolidin-1-yl)isoxazol-5-yl)-3-methylbutanoyl)-4-hydroxy-N-((S)-1-(4-(4-methylthiazol-5-yl)phenyl)ethyl)pyrrolidine-2-carboxamide]	A (“A” indicates maximum degradation ≥75%)	< 0.01	> 50	> 0.01
Cc1ncsc1-c1ccc([C@H](C)NC(=O)[C@@H]2C[C@@H](O)CN2C(=O)[C@@H](c2cc(N3CCC[C@@H](c4cc5nnc(-c6ccccc6O)cc5n4C4CC4)C3)no2)C(C)C)cc1 [Compound 100, (2S,4R)-1-((R)-2-(3-((R)-3-(5-cyclopropyl-3-(2-hydroxyphenyl)-5H-pyrrolo[3,2-c]pyridazin-6-yl)piperidin-1-yl)isoxazol-5-yl)-3-methylbutanoyl)-4-hydroxy-N-((S)-1-(4-(4-methylthiazol-5-yl)phenyl)ethyl)pyrrolidine-2-carboxamide]	A (“A” indicates maximum degradation ≥75%)	> 0.01	< 50	
Cc1ncsc1-c1ccc([C@H](C)NC(=O)[C@@H]2C[C@@H](O)CN2C(=O)[C@@H](c2cc(N3C[C@@H]4C(c5cc6nnc(-c7ccccc7O)cc6n5C5CC5)[C@H]4C3)no2)C(C)C)cc1 (stereo partly drawn) [Compound 101, (2S,4R)-1-((R)-2-(3-((1S,5S)-6-(5-cyclopropyl-3-(2-hydroxyphenyl)-5H-pyrrolo[3,2-c]pyridazin-6-yl)-3-azabicyclo[3.1.0]hexan-3-yl)isoxazol-5-yl)-3-methylbutanoyl)-4-hydroxy-N-((S)-1-(4-(4-methylthiazol-5-yl)phenyl)ethyl)pyrrolidine-2-carboxamide]	A (“A” indicates maximum degradation ≥75%)	< 0.01	> 50	> 0.01
Cc1ncsc1-c1ccc([C@H](C)NC(=O)[C@@H]2C[C@@H](O)CN2C(=O)[C@@H](c2cc(-c3cnc(N4CC[C@@H](c5cc6nnc(-c7ccccc7O)cc6n5C5CCC5)C4)nc3)no2)C(C)C)cc1 [Compound 102, (2S,4R)-1-((R)-2-(3-(2-((R)-3-(5-cyclobutyl-3-(2-hydroxyphenyl)-5H-pyrrolo[3,2-c]pyridazin-6-yl)pyrrolidin-1-yl)pyrimidin-5-yl)isoxazol-5-yl)-3-methylbutanoyl)-4-hydroxy-N-((S)-1-(4-(4-methylthiazol-5-yl)phenyl)ethyl)pyrrolidine-2-carboxamide]	A (“A” indicates maximum degradation ≥75%)	< 0.01	< 50	
Cc1ncsc1-c1ccc([C@H](C)NC(=O)[C@@H]2C[C@@H](O)CN2C(=O)[C@@H](c2cc(-c3cnc(N4CC[C@@H](c5cc6nnc(-c7ccccc7O)cc6n5C5(C)CC5)C4)nc3)no2)C(C)C)cc1 [Compound 103, (2S,4R)-4-hydroxy-1-((R)-2-(3-(2-((R)-3-(3-(2-hydroxyphenyl)-5-(1-methylcyclopropyl)-5H-pyrrolo[3,2-c]pyridazin-6-yl)pyrrolidin-1-yl)pyrimidin-5-yl)isoxazol-5-yl)-3-methylbutanoyl)-N-((S)-1-(4-(4-methylthiazol-5-yl)phenyl)ethyl)pyrrolidine-2-carboxamide]	A (“A” indicates maximum degradation ≥75%)	< 0.01	> 50	< 0.01
Cc1ncsc1-c1ccc([C@H](C)NC(=O)[C@@H]2C[C@@H](O)CN2C(=O)[C@@H](c2cc(-c3cnc(N4CC[C@H](c5cc6nnc(-c7ccccc7O)cc6n5C5(C)CC5)C4)nc3)no2)C(C)C)cc1 [Compound 104, (2S,4R)-4-hydroxy-1-((R)-2-(3-(2-((S)-3-(3-(2-hydroxyphenyl)-5-(1-methylcyclopropyl)-5H-pyrrolo[3,2-c]pyridazin-6-yl)pyrrolidin-1-yl)pyrimidin-5-yl)isoxazol-5-yl)-3-methylbutanoyl)-N-((S)-1-(4-(4-methylthiazol-5-yl)phenyl)ethyl)pyrrolidine-2-carboxamide]	A (“A” indicates maximum degradation ≥75%)	< 0.01	> 75	< 0.01
Cc1ncsc1-c1ccc([C@H](C)NC(=O)[C@@H]2C[C@@H](O)CN2C(=O)[C@@H](c2cc(N3CC4(CC(c5cc6nnc(-c7ccccc7O)cc6n5C5CCC5)C4)C3)no2)C(C)C)cc1 [Compound 105, (2S,4R)-1-[(2R)-2-(3-{6-[5-cyclobutyl-3-(2-hydroxyphenyl)pyrrolo[3,2-c]pyridazin-6-yl]-2-azaspiro[3.3]heptan-2-yl}-1,2-oxazol-5-yl)-3-methylbutanoyl]-4-hydroxy-N-[(1S)-1-[4-(4-methyl-1,3-thiazol-5-yl)phenyl]ethyl]pyrrolidine-2-carb oxamide]	A (“A” indicates maximum degradation ≥75%)	< 0.01	< 50	
Cc1ncsc1-c1ccc([C@H](C)NC(=O)[C@@H]2C[C@@H](O)CN2C(=O)[C@@H](c2cc(-c3cnc(N4CC[C@@H](c5cc6nnc(-c7cccc(F)c7O)cc6n5C5CC5)C4)nc3)no2)C(C)C)cc1 [Compound 106, (2S,4R)-1-((R)-2-(3-(2-((R)-3-(5-cyclopropyl-3-(3-fluoro-2-hydroxyphenyl)-5H-pyrrolo[3,2-c]pyridazin-6-yl)pyrrolidin-1-yl)pyrimidin-5-yl)isoxazol-5-yl)-3-methylbutanoyl)-4-hydroxy-N-((S)-1-(4-(4-methylthiazol-5-yl)phenyl)ethyl)pyrrolidine-2-carboxamide]	B (“B” indicates maximum degradation ≥50%)	> 0.01	< 50	
